Source: PubChem BioAssay AID1963982 (Molecular Pharmacology Branch, DTP, NCI, 2024)
Where “and” joins values, the source holds several entries; their conditions need not be identical. Equal values may be shown once.

System: 313798-341-R-J2-PDC spheroids, viability
Test: Anticancer human tumor 313798-341-R-J2-PDC patient-derived cervical squamous cell carcinoma cell line growth inhibition [PI3K]
Conditions: spheroids with HUVEC and MSC; for viability, T/C: stronger effect = lower value
Summary of the method: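 Combination activity was assessed by viability in multicellular tumor spheroids carrying HUVEC and MSC components. Agents were tested with PI3K inhibitors from a Cmax-based top dose (or 10 microM) downward in half-log increments.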

[1] = curve of first compound, second compound 0.0316 µM
[2] = curve of first compound, second compound 0.1 µM
[3] = curve of first compound, second compound 0.316 µM
[4] = curve of first compound, second compound 1 µM
[5] = second compound 0.0316 µM, first compound 0.0316 µM
[6] = second compound 0.0316 µM, first compound 0.1 µM
[7] = second compound 0.0316 µM, first compound 0.316 µM
[8] = second compound 0.0316 µM, first compound 1 µM
[9] = second compound 0.0316 µM, first compound 3.16 µM
[10] = second compound 0.0316 µM, first compound 10 µM
[11] = second compound 0.1 µM, first compound 0.0316 µM
[12] = second compound 0.1 µM, first compound 0.1 µM
[13] = second compound 0.1 µM, first compound 0.316 µM
[14] = second compound 0.1 µM, first compound 1 µM
[15] = second compound 0.1 µM, first compound 3.16 µM
[16] = second compound 0.1 µM, first compound 10 µM
[17] = second compound 0.316 µM, first compound 0.0316 µM
[18] = second compound 0.316 µM, first compound 0.1 µM
[19] = second compound 0.316 µM, first compound 0.316 µM
[20] = second compound 0.316 µM, first compound 1 µM
[21] = second compound 0.316 µM, first compound 3.16 µM
[22] = second compound 0.316 µM, first compound 10 µM
[23] = second compound 1 µM, first compound 0.0316 µM
[24] = second compound 1 µM, first compound 0.1 µM
[25] = second compound 1 µM, first compound 0.316 µM
[26] = second compound 1 µM, first compound 1 µM
[27] = second compound 1 µM, first compound 3.16 µM
[28] = second compound 1 µM, first compound 10 µM
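Also: spheroids exposed to compounds for seven days.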
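For viability, T/C in this document: 100% = DMSO vehicle control viability.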

With `Cn1nccc1Nc1nccc(-c2ccn(C(CO)c3ccc(Cl)c(F)c3)c(=O)c2)n1` (stereo not drawn) the viability, T/C (compound 0.0316 µM) was 98.7% and 101% (2×) and 96.5%, the viability, T/C (compound 0.1 µM) was 95.3% [middle of 4 runs] and the viability, T/C (compound 0.316 µM) was 98.6% [middle of 4 runs]. For the same molecule, the viability, T/C (compound 1 µM) was 100% [middle of 4 runs], the viability, T/C (compound 3.16 µM) was 116% [middle of 4 runs] and the viability, T/C (compound 10 µM) was 96.9% and 104% (2×) and 105%. For the same molecule, the IC50 (curve of compound) was over 10 µM.
In the case of `C=CC(=O)N1CCN(c2nc(=O)n(-c3c(C)ccnc3C(C)C)c3nc(-c4c(O)cccc4F)c(F)cc23)C(C)C1` (stereo not drawn), the viability, T/C (compound 0.0316 µM) is reported as 100% [middle of 4 runs], the viability, T/C (compound 0.1 µM) is reported as 95% [middle of 4 runs] and the viability, T/C (compound 0.316 µM) is reported as 95.7% [middle of 4 runs]. For the same molecule, the viability, T/C (compound 1 µM) was 97.1% [middle of 4 runs], the viability, T/C (compound 3.16 µM) was 105% [middle of 4 runs] and the viability, T/C (compound 10 µM) was 96.5% (2×) and 104% and 105%. It also gave an IC50 (curve of compound) of over 10 µM.
`CC1(C)CCC(Nc2ncc(C(F)(F)F)c(-c3c[nH]c4c(P(C)(C)=O)c(C#N)ccc34)n2)CN1` (stereo not drawn) + COc1c(OCCCN2CCOCC2)ccc2c3n(c(=NC(=O)c4cnc(N)nc4)nc12)CCN3 gave an IC50 (curve of first compound, second compound 0.00316 µM) of under 0.0316 µM, an IC50 (curve of first compound, second compound 0.01 µM) of under 0.0316 µM and an IC50 [1] of under 0.0316 µM. It also gave an IC50 [2] of under 0.0316 µM, an IC50 [3] of under 0.0316 µM and an IC50 [4] of under 0.0316 µM. It also gave a viability, T/C (second compound 0.00316 µM, first compound 0.0316 µM) of 44.6%, a viability, T/C (second compound 0.00316 µM, first compound 0.1 µM) of 42.3% and a viability, T/C (second compound 0.00316 µM, first compound 0.316 µM) of 39.7%. It also gave a viability, T/C (second compound 0.00316 µM, first compound 1 µM) of 43.9%, a viability, T/C (second compound 0.00316 µM, first compound 3.16 µM) of 45.4% and a viability, T/C (second compound 0.00316 µM, first compound 10 µM) of 33.7%. It also gave a viability, T/C (second compound 0.01 µM, first compound 0.0316 µM) of 39.6%, a viability, T/C (second compound 0.01 µM, first compound 0.1 µM) of 34.7% and a viability, T/C (second compound 0.01 µM, first compound 0.316 µM) of 36.8%. The viability, T/C (second compound 0.01 µM, first compound 1 µM) was 38.1%, the viability, T/C (second compound 0.01 µM, first compound 3.16 µM) was 43.1% and the viability, T/C (second compound 0.01 µM, first compound 10 µM) was 29.1%. It also gave a viability, T/C [5] of 27.4%, a viability, T/C [6] of 27.9% and a viability, T/C [7] of 27.4%. The viability, T/C [8] was 27.9%, the viability, T/C [9] was 26.5% and the viability, T/C [10] was 16.5%. For the same molecule, the viability, T/C [11] was 18.9%, the viability, T/C [12] was 21.1% and the viability, T/C [13] was 20%. For the same molecule, the viability, T/C [14] was 20.2%, the viability, T/C [15] was 21.5% and the viability, T/C [16] was 3.93%. The viability, T/C [17] was 12.2%, the viability, T/C [18] was 11.7% and the viability, T/C [19] was 12.2%. It also gave a viability, T/C [20] of 12%, a viability, T/C [21] of 8.87% and a viability, T/C [22] of 1.12%. The viability, T/C [23] was 9.94%, the viability, T/C [24] was 9.34% and the viability, T/C [25] was 7.8%. The viability, T/C [26] was 7.89%, the viability, T/C [27] was 5.87% and the viability, T/C [28] was 1.15%.
`CC(C)NCC(C(=O)N1CCN(c2ncnc3c2C(C)CC3O)CC1)c1ccc(Cl)cc1` (stereo not drawn) + Cc1nc(NC(=O)N2CCCC2C(N)=O)sc1-c1ccnc(C(C)(C)C(F)(F)F)c1 was tested, and the IC50 [1] was 2.08 µM, the IC50 [2] was 2.77 µM and the IC50 [3] was 1.62 µM. The IC50 [4] was 1.42 µM, the IC50 (curve of first compound, second compound 3.16 µM) was 0.345 µM and the IC50 (curve of first compound, second compound 10 µM) was under 0.0316 µM. The viability, T/C [5] was 118%, the viability, T/C [6] was 100% and the viability, T/C [7] was 88.7%. It also gave a viability, T/C [8] of 65.7%, a viability, T/C [9] of 37.8% and a viability, T/C [10] of 32.4%. For the same molecule, the viability, T/C [11] was 107%, the viability, T/C [12] was 102% and the viability, T/C [13] was 87.8%. The viability, T/C [14] was 72.4%, the viability, T/C [15] was 45.3% and the viability, T/C [16] was 33.6%. The viability, T/C [17] was 101%, the viability, T/C [18] was 93% and the viability, T/C [19] was 94%. It also gave a viability, T/C [20] of 58.5%, a viability, T/C [21] of 39.9% and a viability, T/C [22] of 32.7%. It also gave a viability, T/C [23] of 84.9%, a viability, T/C [24] of 97.4% and a viability, T/C [25] of 86.2%. For the same molecule, the viability, T/C [26] was 55.3%, the viability, T/C [27] was 39.2% and the viability, T/C [28] was 30.3%. The viability, T/C (second compound 3.16 µM, first compound 0.0316 µM) was 65.9%, the viability, T/C (second compound 3.16 µM, first compound 0.1 µM) was 58.6% and the viability, T/C (second compound 3.16 µM, first compound 0.316 µM) was 49.4%. The viability, T/C (second compound 3.16 µM, first compound 1 µM) was 45.8%, the viability, T/C (second compound 3.16 µM, first compound 3.16 µM) was 32.7% and the viability, T/C (second compound 3.16 µM, first compound 10 µM) was 30.2%. The viability, T/C (second compound 10 µM, first compound 0.0316 µM) was 34%, the viability, T/C (second compound 10 µM, first compound 0.1 µM) was 33.5% and the viability, T/C (second compound 10 µM, first compound 0.316 µM) was 34.6%. It also gave a viability, T/C (second compound 10 µM, first compound 1 µM) of 34.3%, a viability, T/C (second compound 10 µM, first compound 3.16 µM) of 27.8% and a viability, T/C (second compound 10 µM, first compound 10 µM) of 22.3%.
